Values joined by “and” are separate entries in the source; they are usually repeats but may differ in a detail not shown here. Identical values can stand only once.
How the values were obtained:
Format in all cases: in vivo
[1] = system: Two-spotted spider mite (Tetranychus uriticae), P-resistant origin; experiment: Two-spotted spider mite leaf dip test (TSMR A42); conditions: 300 ppm, lima bean, mixed life stages, five days
Description: (§1) Test compounds were prepared and formulated into aqueous formulations using acetone. The formulations were tested using the following target species: • SAW-L52-PRODER (southern armyworm), 2ND-3RD Instar Larvae, Leaf Dip, 4 days • CA-H43-APHIGO (cotton aphid), Mixed Life Stages, Leaf Dip • BA-H40-APHIFA (black bean aphid), Mixed Life Stages, Plant Drench • GPA-H52-MYZUPE (green peach aphid), Mixed Life Stages, Leaf Dip • SLWF-H45-BEMIAR (silver leaf whitefly), Adult, Leaf Dip • TSMR-A42-TETRUR (two-spotted spider mite, P-resistant origin), Mixed Life Soges, Leaf Dip
Test Procedures for Two-spotted spider mite (Tetranychus uriticae) TSM—leaf-dip:
Selected lima bean plants (one plant per pot), grown to the first leaf pair with a span of 7-12 cm. Placed sections of a heavily infested leaf (laboratory reared mites) an the test plants. Allowed the mites to transfer from the leaf sections to the test plants (at least two houss) to provide at least 100 mites per leaf. Removed the leaf sections from the test plants prior to dipping.
Prepared test solutions as needed in 50:50 acetone:water and 100 ppm Kinetic® surfactant. Dipped the infested leaves of the intact plant into the test solution to provide complete coverage of the leaf surfaces. Placed in a well-vented area to dry. […]

[2] = system: Bean aphid (Aphis fabae); experiment: Bean aphid test on nasturtium seedlings (BA H40); set-up: key to BA H40 observation (feeding): R = Reduced feeding, regardless of cause (e.g., repellent effects); conditions: 3 days; for BA H40 activity rating: mixed life stages
Description: as §1
Test Procedures for Bean aphid (Aphis fabae) (BA—Foliar):
Transferred approximately 5-day-old nasturtium seedlings (at the state of unfolded cotyledons), grown in Metro mix in propagation trays in the greenhouse, to Rootcubes, which were held in propagation trays Pressed the seed (still attached to the seedling) in the central depression of each cube. Held transferred seedlings for approximately 3 days in the greenhouse for expansion of the cotyledons.
In the insecticide screening laboratory, infested the seedlings. Positioned a paint roller screen above the 72 plants in each tray so that the screen was in contact with the foliage of the test plants. Spread approximately 50 infested nasturtium stems and leaves (from approximately 2-3 peat pots of insectary-reared aphids) an each screen. Kept the trag with the seedlings sitting in about ½ in. water overnight in the laboratory (leaving lights in lab on). Migration of aphids to the test plants occurred by morning. Removed the screen with drying leaves from the trays of test plants and discarded the leaves.
Prepared test solutions as needed in 50:50 acetone:water and 100 ppm Kinetic® surfactant. Selected plants to dip that had approximately 2-30 aphids per plant. Dipped each plant into the test solution to provide complete coverage of the foliage, stem, protruding seed surface and surrounding cube surface. Kept treated plants in the fume hood to dry. For routine screening, used one plant/treatment.
Placed treated plants in bioassay trays, 1 plant/well. Added water to fill each well. This allowed the plants to be watered from the roots, not interfering with the foliar treatment, and reduced potential migration of aphids between treatments. Kept treated plants at room temperature an the insecticide screening lab bench with continuous fluorescent light for 3 days.

[3] = system: Green peach aphid (Myzus persicae); experiment: Green peach aphid leaf dip test (GPA H52); conditions: pepper, mixed life stages, five days
Description: as §1
Test Procedures for GPA—Green peach aphid (Myzus persicae)—Leaf Dip:
Selected pepper plants (one plant per pot) in the second leaf-pair stage, with the 1st leaf-pair measuring 6-10 cm from tip to tip. Removed the cotyledons. Placed infested pepper leaves or leaf sections on top of the test plants, allowing for approximately 60 laboratory-reared aphids per plant. Allowed the aphids to transfer from the leaf sections to the test plants (overnight) to reach a density of at least 40 aphids per plant, then removed the leaf sections.
Prepared test solutions as needed in 50:50 acetone:water and 100 ppm Kinetic® surfactant (STP#1A). Dipped the leaves of the infested plant into the test solution to provide complete coverage of the leaf surfaces. Placed in a well-vented area to dry. Test plants were maintained under fluorescent light (24 hour photoperiod) at 25±2° C. and 20-40% relative humidity for five days, at which time aphid survival was determined (see Table 1a).

[4] = system: Cotton aphid (Aphis gossypii); experiment: Cotton aphid leaf dip test (CA H43); conditions: mixed life stages
Description: as §1
Test Procedures for Cotton aphid (Aphis gossypii) (CA—leaf dip):
Selected cotton plants to the cotyledon stage (one plant per pot). Placed one heavily infested cotyledon pair, hosting approximately 100 laboratory-reared aphids, an top of each test plant. Allowed the aphids to transfer to the test plants (overnight). Removed the drying cotyledons from the test plants prior to dipping.
Prepared test solutions as needed in 50:50 acetone: water and 100 ppm Kinetic® surfactant. Dipped the infested leaves of the intact plant into the test solution to provide complete coverage of the leaf surfaces. Placed in a well-vented area to dry.

| SMILES | TSMR A42 activity rating [1] | BA H40 activity rating ([2]; 10 ppm) | BA H40 observation (feeding) ([2]; 100 ppm) | BA H40 activity rating ([2]; 100 ppm) | BA H40 observation (feeding) ([2]; 300 ppm) | BA H40 activity rating ([2]; 300 ppm) | GPA H52 activity rating ([3]; 10 ppm) | GPA H52 activity rating ([3]; 100 ppm) | GPA H52 activity rating ([3]; 300 ppm) | CA H43 activity rating ([4]; 10 ppm) | CA H43 activity rating ([4]; 100 ppm) | CA H43 activity rating ([4]; 300 ppm) |
| --- | --- | --- | --- | --- | --- | --- | --- | --- | --- | --- | --- | --- |
| C#CCNS(=O)(=O)c1cnccc1C(F)(F)F [Compound 1, 4-Trifluoromethyl-pyridine-3-sulfonic acid prop-2-ynylamide] | 0 (0 = 0-25% reduction of live population vs. check) | 0^ (0 = 0-25% reduction of live population vs. check) | R | 5 (5 = 50-74% reduction of live population vs. check) | R | 8 (8 = 86-99% reduction of live population vs. check) | 0 (0 = 0-25% reduction of live population vs. check) | 7 (7 = 75-85% reduction of live population vs. check) | 8 (8 = 86-99% reduction of live population vs. check) | 0 (0 = 0-25% reduction of live population vs. check) | 8 (8 = 86-99% reduction of live population vs. check) | 8 (8 = 86-99% reduction of live population vs. check) |
| N#CCNS(=O)(=O)c1cnccc1C(F)(F)F [Compound 2, 4-Trifluoromethyl-pyridine-3-sulfonic acid cyanomethyl-amide] | 0 (0 = 0-25% reduction of live population vs. check) | 0^ (0 = 0-25% reduction of live population vs. check) | R | 0 (0 = 0-25% reduction of live population vs. check) | R | 7 (7 = 75-85% reduction of live population vs. check) | 0 (0 = 0-25% reduction of live population vs. check) | 3 (3 = 25-49% reduction of live population vs. check) | 8 (8 = 86-99% reduction of live population vs. check) and 5 (5 = 50-74% reduction of live population vs. check) | 0 (0 = 0-25% reduction of live population vs. check) | 8 (8 = 86-99% reduction of live population vs. check) | 9 (9 = 100% reduction of live population vs. check) |
